In experiment [1] the target is T1, TGW6 (THOUSAND-GRAIN WEIGHT 6), IAA-glucose hydrolase (Oryza sativa, UniProt Q69U01).
T1 construct: gene Os06g0623700; recombinant; N-terminal Trx-(His)6 tag cleaved with thrombin; E. coli Rosetta-gami 2(DE3); purified
T1 sequence (Q69U01 31-350): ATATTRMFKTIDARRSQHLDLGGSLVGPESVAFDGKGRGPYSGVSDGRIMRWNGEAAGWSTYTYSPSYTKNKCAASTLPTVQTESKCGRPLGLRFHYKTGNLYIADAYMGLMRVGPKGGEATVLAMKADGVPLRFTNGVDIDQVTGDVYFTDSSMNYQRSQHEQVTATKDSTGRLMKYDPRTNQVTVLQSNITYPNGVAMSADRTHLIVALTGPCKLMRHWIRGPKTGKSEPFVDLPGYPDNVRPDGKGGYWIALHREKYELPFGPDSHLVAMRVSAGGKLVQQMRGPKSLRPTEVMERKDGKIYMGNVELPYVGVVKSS
Put plainly: […] NMR fragment screening (CPMG R2 filter). The note with it: 298 K. It is filed as binding.

Experiment [2] concerns the target T1, TGW6 (THOUSAND-GRAIN WEIGHT 6), IAA-glucose hydrolase. Put plainly: thermal shift (UNCLE, intrinsic Trp fluorescence BCM). In kind it is binding. The note with it: 27.6 μM TGW6, 55.0 μM ligand, 2 mM CaCl2, pH 7.0.
[3] abbreviates: 10 μM TGW6, 50 μM fragment in mixture.

Bounds are passed on as bounds.

The source of these data is PMC10958001, “THOUSAND-GRAIN WEIGHT 6, which is an IAA-glucose hydrolase, preferentially recognizes the structure of the indole ring” (Scientific Reports, 2024).

`O=[N+]([O-])c1ccc(OCC2CCCO2)c(F)c1` (stereo not shown) [CK0-00681, 2-[(2-Fluoro-4-nitrophenoxy)methyl]tetrahydrofuran]: the “ΔIntensity (%)” value in experiment [1] (10 μM TGW6, 50 μM fragment in mixture, not competitive with IAA-Glc, different site implied) is “− 100.0”.

On to `O=[N+]([O-])c1c(F)cccc1N1CCC(O)CC1` [CK0-02991, 1-(3-Fluoro-2-nitrophenyl)piperidin-4-ol], for which the “ΔIntensity (%)” value in experiment [1] (setting [3]) is “− 57.9”. On the same count and under the same terms, next, `O=[N+]([O-])c1ccc(OC2CCOCC2)c(F)c1` [CK0-03011, 4-(2-Fluoro-4-nitrophenoxy)tetrahydro-2H-pyran]: “− 45.4”. `O=C(O)Cc1c[nH]c2ccccc12` [IAA, indole-3-acetic acid]: in experiment [2], the Tm shift is above 3 °C. Still for that read-out and setting: next, `C[C@H](NC(=O)Cc1c[nH]c2ccccc12)C(=O)O` [IAA-Ala]: ~ 10 °C. For the molecule `O=C(Cc1c[nH]c2ccccc12)O[C@@H]1O[C@H](CO)[C@@H](O)[C@H](O)[C@H]1O` [IAA-Glc, 1-O-indole-3-ylacetyl-β-D-glucose], the Tm shift in experiment [2] was ~ 5 °C. Take `O=C(O)CCCc1c[nH]c2ccccc12` [IBA, indole 3-butyric acid]: the Tm shift in experiment [2] was above 3 °C. The same measure, in the same setting: next, `COC(=O)Cc1c[nH]c2ccccc12` [MeIAA, methyl indole 3-acetate]: above 3 °C.

As for `O=C(O)Cc1c[nH]c2cccc(F)c12` [PK0-38501, 2-(4-Fluoro-1H-indol-3-yl)acetic acid], in experiment [1] (setting [3]), the “ΔIntensity (%)” value is reported as “− 46.5”. In addition, the Tm shift in experiment [2] was ~ 7 °C.

In the case of `O=C(O)Cc1c[nH]c2c(F)cccc12` [PK0-38511, 2-(7-Fluoro-1H-indol-3-yl)acetic acid], in experiment [1] (10 μM TGW6, 50 μM fragment in mixture, competitive with IAA-Glc), the “ΔIntensity (%)” value is “− 50.3”. For the same molecule, in experiment [2], the Tm shift is ~ 9 °C. Turning to `O=C(O)C(c1c[nH]c2ccc(F)cc12)C(F)(F)F` (stereo not shown) [PK0-42071, 3,3,3-Trifluoro-2-(5-fluoro-1H-indol-3-yl)propanoic acid], the “ΔIntensity (%)” value in experiment [1] (10 μM TGW6, CF3-containing fragment at 17.5 μM in mixture) is “− 46.0”.
